Laboratory results taken from ChEMBL document CHEMBL1201862, “PubChem BioAssay data set” (2004).
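Five compound concentrations were applied to cells in 96-well plates for 48 hours; endpoints were derived by simple linear interpolation of the resulting dose-response curve. GI50: concentration for 50% inhibition of growth.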 Calls of active or inactive are those of the source. Rule as the data show it: active = GI50 up to about 1.1 µM and inactive = higher.

What was measured:
Test in all cases: NCI-60 cell line screen, 48 h
T47D = tested on: T47D
SF-295 = tested on: SF-295
A498 = tested on: A498
SR = tested on: SR
EKVX = tested on: EKVX
OVCAR-8 = tested on: OVCAR-8
OVCAR-5 = tested on: OVCAR-5
U-251 = tested on: U-251
UO-31 = tested on: UO-31
BT-549 = tested on: BT-549
SF-268 = tested on: SF-268
K562 = tested on: K562
MDA-MB-435 = tested on: MDA-MB-435
HL-60 = tested on: HL-60
NCI/ADR-RES = tested on: NCI/ADR-RES
SNB-19 = tested on: SNB-19
HT-29 = tested on: HT-29
HOP-92 = tested on: HOP-92
RPMI-8226 = tested on: RPMI-8226
RXF 393 = tested on: RXF 393
SW-620 = tested on: SW-620
LOX IMVI = tested on: LOX IMVI
MOLT-4 = tested on: MOLT-4
Hs-578T = tested on: Hs-578T
SN12C = tested on: SN12C
MDA-MB-231 = tested on: MDA-MB-231
M14 = tested on: M14
IGROV-1 = tested on: IGROV-1
A549 = tested on: A549
CCRF-CEM = tested on: CCRF-CEM
PC-3 = tested on: PC-3
SK-MEL-5 = tested on: SK-MEL-5
HCT-15 = tested on: HCT-15
TK-10 = tested on: TK-10
SF-539 = tested on: SF-539
UACC-257 = tested on: UACC-257
786-0 = tested on: 786-0
MDA-N = tested on: MDA-N
UACC-62 = tested on: UACC-62
OVCAR-3 = tested on: OVCAR-3
ACHN = tested on: ACHN
DU-145 = tested on: DU-145
SNB-75 = tested on: SNB-75
NCI-H460 = tested on: NCI-H460
NCI-H522 = tested on: NCI-H522
SK-MEL-28 = tested on: SK-MEL-28
CAKI-1 = tested on: CAKI-1
NCI-H23 = tested on: NCI-H23
COLO 205 = tested on: COLO 205
OVCAR-4 = tested on: OVCAR-4
HCC 2998 = tested on: HCC 2998
HCT-116 = tested on: HCT-116
HOP-62 = tested on: HOP-62
SK-MEL-2 = tested on: SK-MEL-2
SK-OV-3 = tested on: SK-OV-3
KM12 = tested on: KM12
MCF7 = tested on: MCF7
Malme-3M = tested on: Malme-3M
NCI-H226 = tested on: NCI-H226
DLD-1 = tested on: DLD-1
LXFL 529 = tested on: LXFL 529
M19-MEL = tested on: M19-MEL
HOP-18 = tested on: HOP-18
SNB-78 = tested on: SNB-78
KM-20L2 = tested on: KM-20L2
DMS-114 = tested on: DMS-114

For Nc1ccc2c3[nH]c4cc(N)ccc4cc-3nc2c1, which GI50 (T47D) is on record?
The GI50 was 284 nM (active).

And the GI50 (SF-295)?
Its GI50 is 265 nM (active).

And the GI50 (A498)?
Its GI50 is 138 nM (active).

And the GI50 (SR)?
Its GI50 is 53.5 nM (active).

What about the GI50 (EKVX) of the same compound?
Its GI50 is 267 nM (active).

And the GI50 (OVCAR-8)?
The GI50 was 151 nM (active).

What about the GI50 (OVCAR-5) of the same compound?
Its GI50 is 291 nM (active).

And the GI50 (U-251)?
The GI50 was 156 nM (active).

What about the GI50 (UO-31) of the same compound?
Its GI50 is 92.5 nM (active).

What about the GI50 (BT-549) of the same compound?
The GI50 was 984 nM (active).

What about the GI50 (SF-268) of the same compound?
Its GI50 is 232 nM (active).

And the GI50 (K562)?
Its GI50 is 5070 nM (inactive).

What about the GI50 (MDA-MB-435) of the same compound?
The GI50 was 136 nM (active).

What about the GI50 (HL-60) of the same compound?
The GI50 was 273 nM (active).

What about the GI50 (NCI/ADR-RES) of the same compound?
Its GI50 is 243 nM (active).

And the GI50 (SNB-19)?
The GI50 was 209 nM (active).

What about the GI50 (HT-29) of the same compound?
The GI50 was 145 nM (active).

And the GI50 (HOP-92)?
Its GI50 is 42.2 nM (active).

What about the GI50 (RPMI-8226) of the same compound?
Its GI50 is 414 nM (active).

And the GI50 (RXF 393)?
The GI50 was 320 nM (active).

And the GI50 (SW-620)?
The GI50 was 60.3 nM (active).

And the GI50 (LOX IMVI)?
Its GI50 is 199 nM (active).

What about the GI50 (MOLT-4) of the same compound?
Its GI50 is 78.9 nM (active).

And the GI50 (Hs-578T)?
Its GI50 is 110 nM (active).

And the GI50 (SN12C)?
Its GI50 is 138 nM (active).

What about the GI50 (MDA-MB-231) of the same compound?
Its GI50 is 455 nM (active).

What about the GI50 (M14) of the same compound?
Its GI50 is 344 nM (active).

What about the GI50 (IGROV-1) of the same compound?
Its GI50 is 2160 nM (inactive).

What about the GI50 (A549) of the same compound?
The GI50 was 286 nM (active).

And the GI50 (CCRF-CEM)?
Its GI50 is 158 nM (active).

And the GI50 (PC-3)?
Its GI50 is 224 nM (active).

What about the GI50 (SK-MEL-5) of the same compound?
Its GI50 is 237 nM (active).

And the GI50 (HCT-15)?
The GI50 was 266 nM.

And the GI50 (TK-10)?
The GI50 was 2090 nM (inactive).

What about the GI50 (SF-539) of the same compound?
The GI50 was 231 nM (active).

What about the GI50 (UACC-257) of the same compound?
The GI50 was 172 nM (active).

And the GI50 (786-0)?
The GI50 was 121 nM (active).

And the GI50 (MDA-N)?
The GI50 was 194 nM (active).

And the GI50 (UACC-62)?
The GI50 was 194 nM (active).

And the GI50 (OVCAR-3)?
The GI50 was 349 nM (active).

What about the GI50 (ACHN) of the same compound?
Its GI50 is 23.6 nM (active).

What about the GI50 (DU-145) of the same compound?
The GI50 was 318 nM (active).

And the GI50 (SNB-75)?
Its GI50 is 120 nM (active).

And the GI50 (NCI-H460)?
Its GI50 is 77.5 nM (active).

And the GI50 (NCI-H522)?
The GI50 was 22600 nM (inactive).

And the GI50 (SK-MEL-28)?
Its GI50 is 74.6 nM (active).

And the GI50 (CAKI-1)?
Its GI50 is 203 nM (active).

And the GI50 (NCI-H23)?
The GI50 was 202 nM (active).

And the GI50 (COLO 205)?
Its GI50 is 180 nM (active).

And the GI50 (OVCAR-4)?
The GI50 was 283 nM (active).

And the GI50 (HCC 2998)?
Its GI50 is 90 nM (active).

And the GI50 (HCT-116)?
Its GI50 is 58.2 nM (active).

And the GI50 (HOP-62)?
The GI50 was 117 nM (active).

What about the GI50 (SK-MEL-2) of the same compound?
Its GI50 is 413 nM (active).

What about the GI50 (SK-OV-3) of the same compound?
The GI50 was 314 nM (active).

And the GI50 (KM12)?
The GI50 was 167 nM (active).

And the GI50 (MCF7)?
Its GI50 is 69 nM (active).

What about the GI50 (Malme-3M) of the same compound?
Its GI50 is 2660 nM (inactive).

What about the GI50 (NCI-H226) of the same compound?
Its GI50 is 174 nM (active).

With CC(C)N(O)C(=N)c1ccccc1 as the compound, how does the GI50 (SF-295) read?
Its GI50 is > 100000 nM (inactive).

And the GI50 (DLD-1)?
Its GI50 is > 100000 nM (inactive).

And the GI50 (EKVX)?
The GI50 was > 100000 nM (inactive).

What about the GI50 (OVCAR-8) of the same compound?
Its GI50 is > 100000 nM (inactive).

What about the GI50 (LXFL 529) of the same compound?
The GI50 was > 100000 nM (inactive).

And the GI50 (OVCAR-5)?
The GI50 was > 100000 nM (inactive).

And the GI50 (U-251)?
Its GI50 is > 100000 nM (inactive).

And the GI50 (UO-31)?
The GI50 was > 100000 nM (inactive).

And the GI50 (SF-268)?
The GI50 was > 100000 nM (inactive).

What about the GI50 (M19-MEL) of the same compound?
The GI50 was > 100000 nM (inactive).

What about the GI50 (HL-60) of the same compound?
Its GI50 is > 100000 nM (inactive).

And the GI50 (HOP-18)?
Its GI50 is 47.3 nM (active).

What about the GI50 (SNB-19) of the same compound?
The GI50 was > 100000 nM (inactive).

And the GI50 (HT-29)?
Its GI50 is > 100000 nM (inactive).

And the GI50 (HOP-92)?
The GI50 was > 100000 nM (inactive).

What about the GI50 (RXF 393) of the same compound?
Its GI50 is > 100000 nM (inactive).

And the GI50 (SW-620)?
Its GI50 is > 100000 nM (inactive).

What about the GI50 (LOX IMVI) of the same compound?
The GI50 was > 100000 nM (inactive).

What about the GI50 (SN12C) of the same compound?
Its GI50 is > 100000 nM (inactive).

And the GI50 (M14)?
Its GI50 is > 100000 nM (inactive).

What about the GI50 (A549) of the same compound?
The GI50 was > 100000 nM (inactive).

What about the GI50 (SNB-78) of the same compound?
The GI50 was > 100000 nM (inactive).

What about the GI50 (SK-MEL-5) of the same compound?
The GI50 was > 100000 nM (inactive).

And the GI50 (KM-20L2)?
The GI50 was > 100000 nM (inactive).

And the GI50 (TK-10)?
The GI50 was > 100000 nM (inactive).

And the GI50 (SF-539)?
The GI50 was > 100000 nM (inactive).

And the GI50 (UACC-257)?
Its GI50 is > 100000 nM (inactive).

What about the GI50 (786-0) of the same compound?
Its GI50 is 54700 nM (inactive).

And the GI50 (SNB-75)?
Its GI50 is > 100000 nM (inactive).

What about the GI50 (NCI-H460) of the same compound?
Its GI50 is > 100000 nM (inactive).

And the GI50 (NCI-H522)?
Its GI50 is > 100000 nM (inactive).

What about the GI50 (SK-MEL-28) of the same compound?
The GI50 was > 100000 nM (inactive).

And the GI50 (CAKI-1)?
Its GI50 is > 100000 nM (inactive).

What about the GI50 (NCI-H23) of the same compound?
Its GI50 is > 100000 nM (inactive).

What about the GI50 (OVCAR-4) of the same compound?
Its GI50 is > 100000 nM (inactive).

And the GI50 (HCC 2998)?
Its GI50 is > 100000 nM (inactive).

What about the GI50 (DMS-114) of the same compound?
The GI50 was > 100000 nM (inactive).

What about the GI50 (HCT-116) of the same compound?
The GI50 was > 100000 nM (inactive).

What about the GI50 (HOP-62) of the same compound?
Its GI50 is > 100000 nM (inactive).

And the GI50 (SK-MEL-2)?
Its GI50 is > 100000 nM (inactive).

And the GI50 (KM12)?
Its GI50 is > 100000 nM (inactive).

What about the GI50 (Malme-3M) of the same compound?
The GI50 was > 10000 nM (inactive).

What about the GI50 (NCI-H226) of the same compound?
The GI50 was > 100000 nM (inactive).
